In PMC12280925, “Structure-based discovery of positive allosteric modulators of the A1 adenosine receptor” (Proceedings of the National Academy of Sciences of the …, 2025):
Substitutions are numbered along the chain they refer to.

Key:
[1] = system: A1R-mediated rat atrial beat rate; assay: Isolated rat atria: NECA-mediated decrease in contractile rate; details: approximate, read-out: potency (EC50) for inhibition in rat atrial beat rate
Description: Isolated rat atrial experiments were performed as previously described ([53]). Briefly, 10 to 16 wk old male Sprague Dawley rats were anesthetized with xylazine/ketamine and the chest cavity of the rat was opened to fully expose the heart, which was rapidly removed and placed in Krebs–Henseleit solution. The heart was cut transversely below the right and left atria to remove the ventricles, and the remaining […] were trimmed carefully. Atria was then mounted in an organ bath at 37 °C, bubbled with 5% CO2/95% O2, and allowed to contract spontaneously. The rate of atrial contraction was measured using a force transducer connected to a PowerLab data acquisition system. […] All experiments involving animals were approved by the Monash Institute of Pharmaceutical Sciences Animal Ethics Committee under project number 20213.

[2] = molecular target: T1, A1R (A1R-FlpInCHO cells) (Homo sapiens, UniProt P30542); assay: Inhibition of forskolin-stimulated cAMP accumulation: NECA potency ± compound and compound alone; type: cell-based
T1 sequence (P30542 1-326): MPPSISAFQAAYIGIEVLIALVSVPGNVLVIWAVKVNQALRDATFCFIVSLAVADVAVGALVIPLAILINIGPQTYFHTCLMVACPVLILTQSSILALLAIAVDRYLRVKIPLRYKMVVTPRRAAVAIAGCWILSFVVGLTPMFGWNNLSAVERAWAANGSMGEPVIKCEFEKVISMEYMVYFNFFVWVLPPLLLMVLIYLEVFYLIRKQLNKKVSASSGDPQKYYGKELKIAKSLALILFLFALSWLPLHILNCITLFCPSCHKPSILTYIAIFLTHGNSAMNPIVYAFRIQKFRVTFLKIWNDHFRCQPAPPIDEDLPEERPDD
Description: (§1) FlpInCHO cell lines and cortical neuron cells were seeded into transparent 96-well plates at 20,000 cells/well and incubated for 16 to 20 h in a humidified incubator at 37 °C in 5% CO2. […] Compounds were added at either a single concentration (10 or 30 μM) or a concentration range for full interaction studies (3 to 30 μM), and plates were incubated for 30 to 60 min at 37 °C in a humidified chamber. […] After 30 min incubation at 37 °C, the reaction was terminated by rapid removal of buffer and the addition of 50 μL/well cold ethanol. […] Agonist concentration–response curves were normalized to the response mediated by 3 µM forskolin […].
Response=Basal+Emax-Basal×A/EC50+A,

[3] = molecular target: T2, A1R allosteric site (A1R-FlpINCHO cells, wild type) (Homo sapiens, UniProt P30542); assay: Whole-cell [3H]DPCPX interaction binding with NECA, allosteric ternary complex model; details: for binding cooperativity with NECA (logα): orthosteric agonist NECA
T2 sequence (P30542 1-326): T1 sequence (P30542 1-326)
Description: [^3H]DPCPX (8-cyclopentyl-1,3-dipropylxanthine, [dipropyl-2,3-^3H(N)]) whole-cell binding assays were performed on FlpINCHO cells stably expressing either WT (nontagged or 3xHA-tagged) or mutant 3xHA-A1R. Cells were seeded into a transparent 96-well plate at 40,000 cells/well in DMEM containing 10% FBS. Following 8 h incubation in a humidified environment at 37 °C in 5% CO2, cells were washed and maintained in serum-free DMEM for approximately 18 h at 37 °C in 5% CO2. […] Assays were terminated by washing twice with 100 μL/well cold phosphate-buffered saline, followed by the addition of 100 μL OptiPhase Supermix™ scintillation cocktail and bound radioactivity measured using a MicroBeta^2 ™ plate counter (PerkinElmer).
Equilibrium binding interaction experiments were fitted to the following allosteric ternary complex model.[3] Y=BmaxA/A+KAKB/αAB+KB1+[I]/KI+[B]/KB+αII[B]/KIKB,
A cooperativity factor α > 1 describes positive cooperativity; a value 0 < α < 1 describes negative cooperativity, and a value of α = 1 describes neutral cooperativity.

[4] = molecular target: T1, A1R (A1R-FlpInCHO cells); assay: NECA/allosteric ligand interaction in cAMP accumulation, operational model of allosterism; type: cell-based; details: for allosteric ligand efficacy (logτB): allosteric agonism in cAMP; for functional cooperativity with NECA (logαβ): cAMP
Description: as §1
[5] E=EmτAAKB+αβ[B]+τB[B]KA^n/AKB+KAKB+[B]KA+α[A][B]^n+τAAKB+αβ[B]+τB[B]KA^n
Orthosteric agonist and allosteric ligand affinity were constrained to values determined from radioligand binding.

[5] = molecular target: T3, A1R S246^6.47A mutant (Homo sapiens, UniProt P30542, S246A); parameters: method as in PMID 34497422; details: cited from earlier work
T3 construct: expressed in transfected cells; host or cells: FlpInCHO cells, stably transfected
T3 sequence (P30542 1-326 S246A): T1 sequence (P30542 1-326) with S246A

[6] = molecular target: T4, A1R G279^7.44A mutant (Homo sapiens, UniProt P30542, G279A); parameters: method as in PMID 34497422; details: cited from earlier work
T4 construct: expressed in transfected cells; host or cells: FlpInCHO cells, stably transfected
T4 sequence (P30542 1-326 G279A): T1 sequence (P30542 1-326) with G279A

[7] = parameters: method as in PMID 34497422; details: in vitro liver microsome assays; cited from earlier work
[8] = parameters: method as in PMID 34497422; details: rat model; cited from earlier work
[9] = molecular target: T3, A1R S246^6.47A mutant; assay: [3H]DPCPX interaction binding at mutant S246A-A1R-FlpINCHO
[10] = molecular target: T4, A1R G279^7.44A mutant; assay: [3H]DPCPX interaction binding at mutant G279A-A1R-FlpINCHO
[11] = molecular target: T5, A2AR (Homo sapiens, UniProt P29274); assay: cAMP accumulation in A2AR FlpINCHO cells (selectivity); type: cell-based
T5 construct: expressed in transfected cells; host or cells: FlpInCHO cells, stably transfected
T5 sequence (P29274 whole entry): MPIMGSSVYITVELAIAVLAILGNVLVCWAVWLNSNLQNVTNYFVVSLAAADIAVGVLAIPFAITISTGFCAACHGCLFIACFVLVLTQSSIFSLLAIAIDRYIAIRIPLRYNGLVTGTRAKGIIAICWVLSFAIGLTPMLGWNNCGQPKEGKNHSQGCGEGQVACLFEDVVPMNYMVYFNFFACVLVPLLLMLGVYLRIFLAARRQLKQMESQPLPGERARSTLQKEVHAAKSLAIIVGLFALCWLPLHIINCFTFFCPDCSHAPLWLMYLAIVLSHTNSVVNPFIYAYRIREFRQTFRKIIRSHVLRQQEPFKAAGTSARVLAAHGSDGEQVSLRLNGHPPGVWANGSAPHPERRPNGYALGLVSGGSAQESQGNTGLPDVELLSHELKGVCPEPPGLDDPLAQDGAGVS

[12] = molecular target: T6, A2BR (Homo sapiens, UniProt P29275); assay: cAMP accumulation in A2BR FlpINCHO cells (selectivity); type: cell-based
T6 construct: expressed in transfected cells; host or cells: FlpInCHO cells, stably transfected
T6 sequence (P29275 1-332): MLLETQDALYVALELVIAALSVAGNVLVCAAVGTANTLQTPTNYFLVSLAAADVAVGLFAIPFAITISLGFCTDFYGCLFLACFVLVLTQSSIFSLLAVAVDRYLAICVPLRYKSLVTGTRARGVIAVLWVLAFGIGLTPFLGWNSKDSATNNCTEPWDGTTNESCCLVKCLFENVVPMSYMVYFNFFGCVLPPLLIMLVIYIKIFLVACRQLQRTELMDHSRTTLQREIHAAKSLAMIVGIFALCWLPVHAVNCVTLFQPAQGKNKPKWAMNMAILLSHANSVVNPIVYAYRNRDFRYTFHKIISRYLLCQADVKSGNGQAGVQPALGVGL

[13] = molecular target: T7, A3R (Homo sapiens, UniProt P0DMS8); assay: cAMP accumulation in A3R FlpINCHO cells (selectivity); type: cell-based
T7 construct: expressed in transfected cells; host or cells: FlpInCHO cells, stably transfected
T7 sequence (P0DMS8 1-318): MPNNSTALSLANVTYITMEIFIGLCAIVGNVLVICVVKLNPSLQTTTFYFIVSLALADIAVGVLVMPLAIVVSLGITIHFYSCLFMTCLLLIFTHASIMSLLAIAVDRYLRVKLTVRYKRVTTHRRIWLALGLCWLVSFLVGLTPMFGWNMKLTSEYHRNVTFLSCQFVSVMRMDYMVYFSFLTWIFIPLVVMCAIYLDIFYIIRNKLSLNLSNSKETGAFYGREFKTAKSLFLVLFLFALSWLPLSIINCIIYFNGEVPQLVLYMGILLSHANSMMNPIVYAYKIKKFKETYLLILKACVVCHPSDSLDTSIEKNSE

[14] = molecular target: T8, M2 receptor (M2R) (Homo sapiens, UniProt P08172); assay: cAMP accumulation in M2 receptor FlpINCHO cells (selectivity); type: cell-based; details: acetylcholine as agonist
T8 sequence (P08172 1-466): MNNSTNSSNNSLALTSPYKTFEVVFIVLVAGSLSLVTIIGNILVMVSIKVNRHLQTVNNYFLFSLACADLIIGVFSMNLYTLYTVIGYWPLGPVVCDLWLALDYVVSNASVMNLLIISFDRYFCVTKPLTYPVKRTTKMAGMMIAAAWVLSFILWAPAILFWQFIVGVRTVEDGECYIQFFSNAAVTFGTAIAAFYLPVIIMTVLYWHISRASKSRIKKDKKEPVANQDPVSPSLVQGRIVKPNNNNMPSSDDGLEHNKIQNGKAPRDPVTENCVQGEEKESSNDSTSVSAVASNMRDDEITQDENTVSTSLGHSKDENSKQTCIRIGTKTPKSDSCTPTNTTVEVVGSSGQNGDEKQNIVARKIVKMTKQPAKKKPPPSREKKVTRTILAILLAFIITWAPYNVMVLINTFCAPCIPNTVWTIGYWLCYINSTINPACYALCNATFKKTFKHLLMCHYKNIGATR

[15] = system: nontransfected FlpINCHO cells; assay: cAMP accumulation in nontransfected FlpINCHO cells; type: cell-based, Chinese hamster; details: 10 µM compound
[16] = allosteric ternary complex model

CCNC(=O)[C@H]1O[C@@H](n2cnc3c(N)ncnc32)[C@H](O)[C@@H]1O [NECA, 5′-N-ethylcarboxamidoadenosine]
EC50 [1]: ~0.13 µM

Nc1scc(-c2cc(C(F)(F)F)cc(C(F)(F)F)c2)c1C(=O)c1ccc(Cl)cc1 [compound 1, reference compound]
inhibition of 3 μM forskolin-stimulated cAMP accumulation ([2]; 30 μM compound in the absence of NECA, for NECA: maximal response): 83%
functional response relative to NECA maximal response ([2]; 30 μM, absence of NECA): approximately 80%
allosteric ligand affinity (pKB) ([3]; allosteric ternary complex model, n = 4): 5.18 ± 0.21
binding cooperativity with NECA (logα) [3, 16]: 2.09 ± 0.22
positive cooperativity between PAM and NECA ([3]; approximate, from logα): approximately 100 fold
Kd ([3]; approximate, from pKB, read-out: affinity for the A1R allosteric site): ~8 µM
allosteric ligand efficacy (logτB) [4]: 0.56 ± 0.06
functional cooperativity with NECA (logαβ) [4]: 0.78 ± 0.15
effect of binding site mutation on affinity [5]: small (four- to seven-fold) but significant reduction
effect of binding site mutation on affinity [6]: small (four- to seven-fold) but significant reduction
metabolism in liver microsomes [7]: rapid metabolism
in vivo analgesic efficacy [8]: in vivo analgesic efficacy

CCCc1sc(N)nc1-c1ccc(C)c2ccccc12 [compound 54]
agonism (compound alone) ([2]; A1R-FlpINCHO cells): modest functional response
binding cooperativity (logα) with NECA ([3]; WT A1R, Table S2): 0.92
Kb ([3]; allosteric ligand affinity (pKB), allosteric ternary complex model, n = 4): 7.08 µM
binding cooperativity with NECA (logα) [3, 16]: 1.15 ± 0.10
Kb ([3]; pKB, WT A1R, mean ± SEM (n), Table S2): 5.62 µM
allosteric ligand efficacy (logτB) [4]: −0.37 ± 0.10
functional cooperativity with NECA (logαβ) [4]: 0.84 ± 015
effect of S246^6.47A on affinity or cooperativity [9]: did not significantly decrease
Kb ([9]; […], Table S2): 5.13 µM
binding cooperativity (logα) with NECA ([9]; […], Table S2): 1.10
effect of G279^7.44A on affinity [10]: did not influence
effect of G279^7.44A on allosteric cooperativity with the orthosteric agonist [10]: significantly decreased
Kb ([10]; […], Table S2): 2.14 µM
binding cooperativity (logα) with NECA ([10]; […], Table S2): -0.05
effect on NECA potency ([11]; 10 µM compound, A2AR): no significant effect
agonism (compound alone) ([11]; 30 μM, A2AR FlpINCHO cells): no appreciable activity
effect on NECA potency ([12]; 10 µM compound, A2BR): no significant effect
agonism (compound alone) ([12]; 30 μM, A2BR FlpINCHO cells): no appreciable activity
effect on NECA potency ([13]; 10 µM compound, A3R): no significant effect
agonism (compound alone) ([13]; 30 μM, A3R FlpINCHO cells): no appreciable activity
effect in FlpINCHO cells expressing the M2 receptor [14]: no significant effect
effect in nontransfected FlpINCHO cells [15]: no significant effect
